Results as given in US20100292320A1, “BENZOFURAN ANILIDE HISTONE DEACETYLASE INHIBITORS” (Gilead Colorado, Inc., priority 2007, published 2010).

How the values were obtained:
HDAC 6 [1] = target: T1, HDAC 6 (Homo sapiens, UniProt Q9UBN7); experiment: HDAC 6 inhibition assay, fluorophore/quencher peptide substrate, 3-hour preincubation; assay type: biochemical; settings: about 3 hours preincubation of enzyme/compound mix at room temperature; read-out: HDAC 6 inhibitory activity (IC50 [μM]) 3-hour preincubation
T1 sequence (Q9UBN7 1-1215): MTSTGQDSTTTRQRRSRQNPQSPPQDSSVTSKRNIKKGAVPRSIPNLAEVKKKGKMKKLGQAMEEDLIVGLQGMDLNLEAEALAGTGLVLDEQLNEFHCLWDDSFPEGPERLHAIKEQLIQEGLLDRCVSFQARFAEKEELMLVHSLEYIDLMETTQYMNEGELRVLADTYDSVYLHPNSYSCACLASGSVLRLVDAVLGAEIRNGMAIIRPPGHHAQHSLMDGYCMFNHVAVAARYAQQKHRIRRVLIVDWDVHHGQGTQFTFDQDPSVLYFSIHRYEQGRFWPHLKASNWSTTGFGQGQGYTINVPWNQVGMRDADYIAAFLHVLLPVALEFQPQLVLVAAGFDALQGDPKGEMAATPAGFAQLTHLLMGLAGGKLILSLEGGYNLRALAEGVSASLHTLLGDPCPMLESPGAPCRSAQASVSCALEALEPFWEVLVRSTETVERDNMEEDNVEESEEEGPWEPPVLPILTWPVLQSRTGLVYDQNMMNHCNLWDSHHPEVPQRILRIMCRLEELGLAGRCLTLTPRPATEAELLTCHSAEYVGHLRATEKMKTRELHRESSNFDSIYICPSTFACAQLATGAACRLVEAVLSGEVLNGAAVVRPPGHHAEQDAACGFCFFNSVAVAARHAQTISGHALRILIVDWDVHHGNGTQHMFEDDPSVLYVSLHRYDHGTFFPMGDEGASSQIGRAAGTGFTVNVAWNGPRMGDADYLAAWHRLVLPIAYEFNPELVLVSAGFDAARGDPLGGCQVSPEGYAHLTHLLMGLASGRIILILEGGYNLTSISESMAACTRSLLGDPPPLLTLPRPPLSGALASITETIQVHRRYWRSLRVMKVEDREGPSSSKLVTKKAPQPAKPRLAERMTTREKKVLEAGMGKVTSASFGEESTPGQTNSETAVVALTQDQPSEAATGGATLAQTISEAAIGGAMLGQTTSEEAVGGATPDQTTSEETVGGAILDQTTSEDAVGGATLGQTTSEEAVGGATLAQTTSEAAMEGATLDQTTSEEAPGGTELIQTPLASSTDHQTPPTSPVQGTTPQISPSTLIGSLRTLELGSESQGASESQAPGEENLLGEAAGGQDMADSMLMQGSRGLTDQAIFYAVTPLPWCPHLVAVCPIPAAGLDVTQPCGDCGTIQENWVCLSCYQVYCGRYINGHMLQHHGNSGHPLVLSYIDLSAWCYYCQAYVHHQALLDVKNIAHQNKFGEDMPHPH
Description: (§1) The second assay is similar to the first assay described above, except that preincubation is carried out for about 3 hours after the enzyme is introduced. The test compound was suspended in, and titrated in DMSO. It was then spotted into a 384-well test plate. The enzyme, HDAC 1 or 6, was diluted in the same assay buffer as used in the previous assay and added to the pre-spotted compound. The enzyme/compound mix was incubated at room temperature for about 3 hours. The peptide substrate containing a fluorophore/quencher pair was diluted in the assay buffer and added to the compound/enzyme mix initiating the reaction. The reaction incubated at room temperature for 45 minutes. A concentrated developer solution was diluted in the assay buffer, and added to the reaction. The reaction was incubated at room temperature for about 15 minutes and relative fluorescence was read on an instrument reader.

HDAC 6 [2] = target: T1, HDAC 6; experiment: HDAC 6 inhibition assay, fluorophore/quencher peptide substrate, no preincubation; assay type: biochemical; settings: no preincubation of enzyme and compound; read-out: HDAC 6 inhibitory activity (IC50 [μM]) No preincubation
Description: (§2) HDAC inhibitory activity of the compound of Example 1 was measured by two types of assays in which HDAC 1 and 6 were used as a target molecule. The first assay was carried out without preincubation after addition of the enzyme. The test compound was suspended in and titrated in DMSO. It was then spotted into a 384-well test plate. The enzyme, HDAC 1 or 6, was diluted in assay buffer containing 25 mM Tris-HCl (pH 8.0), 137 mM NaCl, 2.7 mM KCl, and 0.01% Tween-20 and added to the pre-spotted compound. The peptide substrate containing a fluorophore/quencher pair was diluted in the same assay buffer and added to the compound/enzyme mix initiating the reaction. The reaction incubated at room temperature for about 45 minutes. A concentrated developer solution was diluted in the assay buffer, and added to the reaction. The reaction was incubated at room temperature for about 15 minutes and relative fluorescence was read on an instrument reader.

HDAC 1 [3] = target: T2, HDAC 1 (Homo sapiens, UniProt Q13547); experiment: HDAC 1 inhibition assay, fluorophore/quencher peptide substrate, 3-hour preincubation; assay type: biochemical; settings: about 3 hours preincubation of enzyme/compound mix at room temperature; read-out: HDAC 1 inhibitory activity (IC50 [μM]) 3-hour preincubation
T2 sequence (Q13547 whole entry, species assumed): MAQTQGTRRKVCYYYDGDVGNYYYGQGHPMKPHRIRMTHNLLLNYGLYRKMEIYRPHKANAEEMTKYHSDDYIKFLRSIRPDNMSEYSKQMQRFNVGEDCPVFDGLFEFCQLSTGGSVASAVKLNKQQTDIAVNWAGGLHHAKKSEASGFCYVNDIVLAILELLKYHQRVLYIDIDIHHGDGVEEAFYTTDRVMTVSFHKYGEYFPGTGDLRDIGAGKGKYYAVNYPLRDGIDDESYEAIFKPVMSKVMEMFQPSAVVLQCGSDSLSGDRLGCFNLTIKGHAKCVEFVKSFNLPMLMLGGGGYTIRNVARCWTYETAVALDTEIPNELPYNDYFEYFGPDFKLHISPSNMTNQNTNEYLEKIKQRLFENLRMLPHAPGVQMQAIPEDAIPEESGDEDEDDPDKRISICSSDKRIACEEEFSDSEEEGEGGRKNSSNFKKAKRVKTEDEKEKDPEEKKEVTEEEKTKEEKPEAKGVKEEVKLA
Description: as §1

HDAC 1 [4] = target: T2, HDAC 1; experiment: HDAC 1 inhibition assay, fluorophore/quencher peptide substrate, no preincubation; assay type: biochemical; settings: no preincubation of enzyme and compound; read-out: HDAC 1 inhibitory activity (IC50 [μM]) No preincubation
Description: as §2

IC50 (HDAC 6 [1]): > 50 µM
IC50 (HDAC 6 [2]): > 50 µM
melting point: 205.1 °C
IC50 (HDAC 1 [3]): 0.0033 µM
IC50 (HDAC 1 [4]): 0.03 µM
SMILES: CN(C)Cc1c(C(=O)NCCOc2ccc(C(=O)Nc3ccccc3N)cc2)oc2ccccc12 [Example 1, N-(2-aminophenyl)-4-[2-(3-dimethylaminomethylbenzofuran-2-ylcarbonylamino)-ethoxy]-benzamide]
